“And” between values parts separate entries of the source, which are not always exact repeats. Identical values can stand only once.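 The compound was tested at five concentrations on cells cultured in 96-well plates, with a 48-hour exposure period. Here, GI50 denotes the concentration required for 50% inhibition of growth. Definition used: TGI = concentration required for complete inhibition of growth.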
Legend:
Test in all cases: inhibition of tumour cell growth, NCI panel, 48 h
SW-620 colon = tested on: SW-620 colon
HCC-2998 colon = tested on: HCC-2998 colon
SF-268 CNS = tested on: SF-268 CNS
COLO 205 colon = tested on: COLO 205 colon
SF-295 CNS = tested on: SF-295 CNS
NCI-H23 lung = tested on: NCI-H23 lung
HT29 colon = tested on: HT29 colon
SK-MEL-28 melanoma = tested on: SK-MEL-28 melanoma

SMILES | TGI (SW-620 colon) | TGI (HCC-2998 colon) | TGI (SF-268 CNS) | TGI (COLO 205 colon) | TGI (SF-295 CNS) | TGI (NCI-H23 lung) | TGI (HT29 colon) | TGI (SK-MEL-28 melanoma) | GI50 (SW-620 colon) | GI50 (HCC-2998 colon) | GI50 (SF-268 CNS) | GI50 (COLO 205 colon) | GI50 (SF-295 CNS) | GI50 (NCI-H23 lung) | GI50 (HT29 colon) | GI50 (SK-MEL-28 melanoma)
COc1ccc2nc3c(C(=O)NCCN(C)C)cccc3nc2c1 | 81.6 µM | 20 µM | 48.5 µM | 22.9 µM | 39.1 µM | 24.7 µM | 28.8 µM | 26.1 µM |  |  |  |  |  |  |  | 
C/C(CC(=O)Nc1cc(C)ccc1C)=N\NC(=O)c1ccncc1 | > 100 µM | > 100 µM | > 100 µM | > 100 µM | > 100 µM | > 100 µM | > 100 µM | > 100 µM |  |  |  |  |  |  |  | 
C#CCNC(=O)c1cccc2c1cc(C)n2-c1nc2c(c(NCc3ccccc3)n1)CCCC2 | 0.142 µM | 0.0331 µM | 0.0771 µM | 0.0382 µM | 0.0418 µM | 0.0563 µM | 0.0924 µM | 0.123 µM | 0.0289 µM | 0.0164 µM | 0.0257 µM | 0.0191 µM | 0.0175 µM | 0.0195 µM | 0.03 µM | 0.035 µM
O=C(CCc1nnc2sc(-c3ccc(Cl)cc3Cl)nn12)c1nc2ccccc2[nH]1 | 0.744 µM | 2.92 µM | 2.85 µM | 2.65 µM | 5.56 µM | 3 µM | 2.01 µM | 1.68 µM | 0.229 µM | 1.42 µM | 0.994 µM | 1.09 µM | 1.65 µM | 0.694 µM | 0.374 µM | 0.452 µM
Nc1c(-c2ccc(Cl)cc2)[n+]([O-])c2ccccc2[n+]1[O-] | > 100 µM | > 100 µM | > 100 µM | > 100 µM | > 100 µM | > 100 µM | > 100 µM | > 100 µM |  |  |  |  |  |  |  | 
CCN(CC)CCCC(C)Nc1c2ccc(Cl)cc2nc2ccc(O)cc12 (centres undefined) | 4.13 µM | 6.97 µM | 11.3 µM | 2.63 µM | 3.76 µM | 13.6 µM | 5.39 µM | 2.98 µM | 1.16 µM | 2.44 µM | 2.04 µM | 1.17 µM | 1.73 µM | 3.18 µM | 1.22 µM | 1.6 µM
O=C1C(Cl)=C(NCCN2CCOCC2)C(=O)c2ncccc21 | 6.42 µM and 6.22 µM | 2.85 µM and 3.47 µM | 4.27 µM and 15.5 µM | 3.43 µM | 3.33 µM and 3.3 µM | 3.75 µM and 3.52 µM | 6.74 µM | 3.29 µM | 2.45 µM | 1.73 µM | 3.8 µM | 1.61 µM |  | 1.25 µM |  | 
Nc1nc(N(Cc2ccccc2)c2ccccc2)c2cn[nH]c2n1 | > 100 µM | > 100 µM | > 100 µM | > 100 µM | 62.4 µM | > 100 µM | > 100 µM | > 100 µM | 3.93 µM | 6.41 µM | 4.21 µM | 2.9 µM | 2.87 µM | 6.06 µM | 3.54 µM | 16.9 µM
O=C(CC1(O)C(=O)Nc2c(Cl)ccc(Cl)c21)c1ccc(F)cc1 (centres undefined) | > 100 µM | > 100 µM | > 100 µM | > 100 µM | > 100 µM | 60.6 µM | > 100 µM | > 100 µM |  |  |  |  |  |  |  | 
O=C(O)C(=Cc1ccc(-c2ccccc2)cc1)C(=O)O | 97.5 µM | 21.9 µM | > 59.3 µM | 25.1 µM | 53.3 µM | 32.2 µM | > 49.3 µM | 48.3 µM |  |  |  |  |  |  |  | 
Cc1cc(Cl)cc2c1NC(=O)C2(O)CC(=O)c1ccco1 (centres undefined) | > 100 µM | > 100 µM | > 100 µM | > 100 µM | > 100 µM | > 100 µM | > 100 µM | > 100 µM |  |  |  |  |  |  |  | 
COC(=O)Nc1nc2ccc(Oc3ccc(NC(=O)Nc4cc(C(F)(F)F)ccc4F)cc3)cc2s1 | > 25 µM | > 25 µM | > 25 µM | > 25 µM | > 25 µM | > 25 µM | > 25 µM | > 25 µM | 9.85 µM | > 25 µM | 8.5 µM | > 25 µM | 24.8 µM | 9.25 µM | 12.7 µM | 13.9 µM
CC(SC(=S)N1CCOCC1)c1cc2oc(=O)n(C)c2cc1Cl (centres undefined) | > 10 µM | > 100 µM | > 100 µM | > 100 µM | > 100 µM | > 100 µM | > 100 µM | > 100 µM |  |  |  |  |  |  |  | 
O=c1cc(-c2ccccc2)oc2cc(OC/C(=N/O)c3ccccc3)ccc12 | > 50 µM | > 50 µM | 31 µM | > 50 µM | 23.4 µM | > 50 µM | > 50 µM | 32.2 µM | > 50 µM | 30.7 µM | 11.5 µM | > 50 µM | 6 µM | 22.6 µM | 22.4 µM | 12.3 µM
Cc1cc(N(CCC#N)CCC#N)ccc1/C=C1\N=C(c2cc([N+](=O)[O-])ccc2Cl)N(c2cccc(Cl)c2)C1=O | > 100 µM | > 100 µM | > 100 µM | > 100 µM | > 100 µM | > 100 µM | > 100 µM | > 100 µM |  |  |  |  |  |  |  | 
Cc1ccc(C(=O)N(CCCN)C(c2oc3cc(Cl)ccc3c(=O)c2Cc2ccccc2)C(C)C)cc1 (centres undefined) | 1.45 µM | 1.58 µM | 1.69 µM | 0.595 µM | 1.48 µM | 1.61 µM | 0.437 µM | 2.5 µM | < 0.01 µM | < 0.01 µM | < 0.01 µM | < 0.01 µM | < 0.01 µM | < 0.01 µM | < 0.01 µM | 1.07 µM
CC[C@@]1(c2ccccc2)C2=C(CC(C)(C)CC2=O)Nc2[nH]ncc21 | > 100 µM | > 100 µM | > 100 µM | > 100 µM | > 100 µM | > 100 µM | > 100 µM | > 100 µM | > 100 µM | > 100 µM | > 100 µM | > 100 µM | > 100 µM | > 100 µM | > 100 µM | > 100 µM
Cn1c2ccccc2c2ccc3c(c21)C(=O)c1ccccc1C3=O | > 100 µM | > 100 µM | 66.6 µM | 82 µM | 42 µM | 33.5 µM | 39.5 µM | 29.4 µM |  |  |  |  |  |  |  | 
COc1cc2ncn(-c3cc(OCc4cccs4)c(C(N)=O)s3)c2cc1OC | > 20.3 µM | > 25 µM | > 25 µM | > 13.9 µM | > 25 µM | > 25 µM | > 25 µM | > 25 µM | 1.04 µM | 2.29 µM | 1.95 µM | 1.11 µM | 1.59 µM | 1.24 µM | 0.875 µM | 7.62 µM

From PubChem BioAssay (NCI)
